Assay results: patent US20180055032A1, “ODORS FOR PSYLLID TRAPPING, REPELLING AND CONTROL” (The Regents of the University of California, priority 2011, published 2018)
Like-named read-outs stand apart in the source and are kept apart here.

Experiments:
Format in all cases: cell-based, Diaphorina citri
[1] = system: neuron 2A (rhinarial plate on flagellomere 2); assay: single-sensillum electrophysiology, odor response of neuron 2A; conditions: for odor response (frequency of action potentials during stimulus minus baseline), 2A: Table 1, odor diluted to 1%, 50 μL in cartridge; for all read-outs here: key: 0, no response; +, >50 spikes/second; ++, >100 spikes/second; +++, >150 spikes/second
[2] = system: neuron 2B (rhinarial plate on flagellomere 2); assay: single-sensillum electrophysiology, odor response of neuron 2B; conditions: for odor response (frequency of action potentials during stimulus minus baseline), 2B: Table 1, odor diluted to 1%, 50 μL in cartridge; for response to ultra-prolonged activators, 2B: key: 0, no response; +, >50 spikes/second; ++, >100 spikes/second; +++, >150 spikes/second
[3] = system: neuron 2C (rhinarial plate on flagellomere 2); assay: single-sensillum electrophysiology, odor response of neuron 2C; conditions: for odor response (frequency of action potentials during stimulus minus baseline), 2C: Table 1, odor diluted to 1%, 50 μL in cartridge; for response to ultra-prolonged activators, 2C: key: 0, no response; +, >50 spikes/second; ++, >100 spikes/second; +++, >150 spikes/second
[4] = system: neuron 4A (rhinarial plate on flagellomere 4); assay: single-sensillum electrophysiology, odor response of neuron 4A; conditions: for odor response (frequency of action potentials during stimulus minus baseline), 4A: Table 1, odor diluted to 1%, 50 μL in cartridge
[5] = system: neuron 4B (rhinarial plate on flagellomere 4)
[6] = system: neuron 4C (rhinarial plate on flagellomere 4); assay: single-sensillum electrophysiology, odor response of neuron 4C; conditions: for odor response (frequency of action potentials during stimulus minus baseline), 4C: Table 1, odor diluted to 1%, 50 μL in cartridge
[7] = system: neuron 6A (rhinarial plate on flagellomere 6); assay: single-sensillum electrophysiology, odor response of neuron 6A; conditions: for odor response (frequency of action potentials during stimulus minus baseline), 6A: Table 1, odor diluted to 1%, 50 μL in cartridge
[8] = system: neuron 6B (rhinarial plate on flagellomere 6); assay: single-sensillum electrophysiology, odor response of neuron 6B; conditions: for odor response (frequency of action potentials during stimulus minus baseline), 6B: Table 1, odor diluted to 1%, 50 μL in cartridge
[9] = system: neuron 6C (rhinarial plate on flagellomere 6); assay: single-sensillum electrophysiology, odor response of neuron 6C; conditions: for odor response (frequency of action potentials during stimulus minus baseline), 6C: Table 1, odor diluted to 1%, 50 μL in cartridge
[10] = system: neuron 7A (rhinarial plate on flagellomere 7); assay: single-sensillum electrophysiology, odor response of neuron 7A; conditions: for odor response (frequency of action potentials during stimulus minus baseline), 7A: Table 1, odor diluted to 1%, 50 μL in cartridge; for all read-outs here: key: 0, no response; +, >50 spikes/second; ++, >100 spikes/second; +++, >150 spikes/second
[11] = system: neuron 7B (rhinarial plate on flagellomere 7)
[12] = system: neuron 7C (rhinarial plate on flagellomere 7); assay: single-sensillum electrophysiology, odor response of neuron 7C; conditions: for odor response (frequency of action potentials during stimulus minus baseline), 7C: Table 1, odor diluted to 1%, 50 μL in cartridge
[13] = Table 1, odor diluted to 1%, 50 μL in cartridge
[14] = Table 3, 10^−2 in paraffin oil, 50 μL, odor puff of 0.5 sec

Row | SMILES | odor response (frequency of action potentials during stimulus minus baseline), 2A [1] | odor response (frequency of action potentials during stimulus minus baseline), 2B [2] | odor response (frequency of action potentials during stimulus minus baseline), 2C [3] | odor response (frequency of action potentials during stimulus minus baseline), 4A [4] | odor response (frequency of action potentials during stimulus minus baseline), 4B [5, 13] | odor response (frequency of action potentials during stimulus minus baseline), 4C [6] | odor response (frequency of action potentials during stimulus minus baseline), 6A [7] | odor response (frequency of action potentials during stimulus minus baseline), 6B [8] | odor response (frequency of action potentials during stimulus minus baseline), 6C [9] | odor response (frequency of action potentials during stimulus minus baseline), 7A [10] | odor response (frequency of action potentials during stimulus minus baseline), 7B [11, 13] | odor response (frequency of action potentials during stimulus minus baseline), 7C [12] | further results
1 | CCCC(=O)OC [methyl butyrate] | 0 | 0 | 0 | 0 | ++ (++, >100 spikes/second) | 0 | 0 | + (+, >50 spikes/second) | 0 | 0 | 0 | + (+, >50 spikes/second) | –
2 | C=CC(=C)CCC=C(C)C [myrcene] | 0 | 0 | ++ (++, >100 spikes/second) | 0 | + (+, >50 spikes/second) | 0 | 0 | + (+, >50 spikes/second) | 0 | 0 | 0 | 0 | –
3 | CCCCCCCCC=O [nonanal] | 0 | 0 | 0 | 0 | ++ (++, >100 spikes/second) | 0 | 0 | ++ (++, >100 spikes/second) | 0 | 0 | 0 | ++ (++, >100 spikes/second) | response to ultra-prolonged activators, 2A [1, 14]: 0; response to ultra-prolonged activators, 2B [2, 14]: 0; response to ultra-prolonged activators, 2C [3, 14]: 0; response to ultra-prolonged activators, 4A [4, 14]: 0; response to ultra-prolonged activators, 4B [5, 14]: ++ (++, >100 spikes/second); response to ultra-prolonged activators, 4C [6, 14]: 0; response to ultra-prolonged activators, 6A [7, 14]: 0; response to ultra-prolonged activators, 6B [8, 14]: ++ (++, >100 spikes/second); response to ultra-prolonged activators, 6C [9, 14]: 0; response to ultra-prolonged activators, 7A [10, 14]: 0; response to ultra-prolonged activators, 7B [11, 14]: 0; response to ultra-prolonged activators, 7C [12, 14]: ++ (++, >100 spikes/second)
4 | CCCCCCCC=O [octanal] | 0 | + (+, >50 spikes/second) | 0 | + (+, >50 spikes/second) | 0 | + (+, >50 spikes/second) | + (+, >50 spikes/second) | 0 | + (+, >50 spikes/second) | 0 | ++ (++, >100 spikes/second) | 0 | –
5 | Cc1ccc(C(C)C)cc1 [p-cymene] | 0 | 0 | 0 | 0 | +++ (+++, >150 spikes/second) | 0 | 0 | ++ (++, >100 spikes/second) | 0 | 0 | 0 | 0 | –
6 | CCCCCOC(C)=O [pentyl acetate] | 0 | 0 | ++ (++, >100 spikes/second) | 0 | + (+, >50 spikes/second) | 0 | 0 | ++ (++, >100 spikes/second) | 0 | 0 | 0 | 0 | –
7 | O=CCc1ccccc1 [phenylacetaldehyde] | 0 | 0 | 0 | 0 | + (+, >50 spikes/second) | 0 | 0 | + (+, >50 spikes/second) | 0 | 0 | 0 | 0 | –
8 | CC1=CCC(=C(C)C)CC1 [terpinolene] | 0 | 0 | 0 | 0 | + (+, >50 spikes/second) | 0 | 0 | + (+, >50 spikes/second) | 0 | 0 | 0 | 0 | –
9 | O [water] | 0 | 0 | 0 | 0 | – | + (+, >50 spikes/second) | 0 | 0 | + (+, >50 spikes/second) | 0 | – | 0 | odor response (frequency of action potentials during stimulus minus baseline), 4B [5]: 0; odor response (frequency of action potentials during stimulus minus baseline), 7B [11]: 0
10 | C/C1=C\CC/C(C)=C/CC(C)(C)/C=C/C1 [α-humulene] | 0 | ++ (++, >100 spikes/second) | 0 | 0 | 0 | 0 | 0 | 0 | 0 | 0 | ++ (++, >100 spikes/second) | 0 | –
